Data taken from patent US20240041866A1, “PHARMACEUTICAL COMPOSITION” (FUJIFILM TOYAMA CHEMICAL CO., LTD., priority 2020, published 2024).

Experiments:
[1] = Test Example 2: Appearance (degree of coloring) of aqueous solution left at 70° C.; format: physicochemical; conditions: stabilizing component added to aqueous solution of Compound A
Method: To examine the stabilizing effect of a stabilizing component, the degree of coloring was determined. […] Subsequently, the color tone of each filtrate was observed visually.

[2] = cited from earlier work

NC(CO)(CO)CO [trometamol]
Results in view of appearance [1]: particularly favorable

O=C(O)CN(CCO)CCO [bicine, N,N-bis(2-hydroxyethyl)glycine]
Results in view of appearance [1]: particularly favorable

NC(=O)c1nc(F)c[nH]c1=O [Compound A, 6-fluoro-3-hydroxy-2-pyrazinecarboxamide]
Water solubility [2]: low water solubility

O=C(O)CNC(CO)(CO)CO [tricine, N-[tris(hydroxymethyl)methyl]glycine]
Results in view of appearance [1]: particularly favorable

O=C(O)CN(CCN(CC(=O)O)CC(=O)O)CC(=O)O [EDTA, ethylenediamine tetraacetic acid]
Results in view of appearance [1]: particularly favorable
